Reference: ChEMBL document CHEMBL1151990, “3-Alkylpyridinium alkaloids from the Pacific sponge Haliclona sp” (J Nat Prod, 2009)
Values after ≈ are worked out from the molar mass of the structure shown.

Columns and labels:
WEHI-164 = assay: Cytotoxicity against mouse WEHI164 cells by rapid colorimetric assay; type: functional, cell-based
J774.A1 = assay: Cytotoxicity against mouse J774A1 cells by rapid colorimetric assay; type: cell-based
HEK293 = assay: Cytotoxicity against HEK293 cells by rapid colorimetric assay; type: cell-based; conditions: Homo sapiens

Work on `C1=C\Cc2ccc[n+](c2)CCCCCCCC/C=C\Cc2ccc[n+](c2)CCCCCCCC/C=C\Cc2ccc[n+](c2)CCCCCCCC/1` yielded an IC50 (WEHI-164) greater than 20 µg/mL, an IC50 (J774.A1) greater than 20 µg/mL and an IC50 (HEK293) greater than 20 µg/mL.
`C1=C\Cc2ccc[n+](c2)CCCCCCCC/C=C\Cc2ccc[n+](c2)CCCCCCCC/1` was tested, and the IC50 (WEHI-164) was greater than 20 µg/mL, the IC50 (J774.A1) was greater than 20 µg/mL and the IC50 (HEK293) was greater than 20 µg/mL.
With `Sc1ncnc2nc[nH]c12` [MERCAPTOPURINE ANHYDROUS] the IC50 (WEHI-164) was 0.0025 µg/mL (≈ 0.0164 µM), the IC50 (J774.A1) was 0.0051 µg/mL (≈ 0.0335 µM) and the IC50 (HEK293) was 0.00071 µg/mL (≈ 0.00467 µM).
